Test results as given in ChEMBL document CHEMBL6153170 (J Med Chem, 2025).
Activity calls are given as the source filed them. No cut-off for these calls is given here.

How the values were obtained:
Histone deacetylase 7 = molecular target: T1, Histone deacetylase 7 (Homo sapiens, UniProt Q8WUI4); experiment: Inhibition of N-terminal GST-tagged recombinant human HDAC7 (501 to 952 residues) extracted from baculovirus expression system using Ac-Leu-Gly-Lys (Tfa)-AMC as substrate preincubated for 5 mins followed by substrate addition and measured after 30 mins by fluorescence microplate reader analysis
T1 sequence (Q8WUI4 whole entry): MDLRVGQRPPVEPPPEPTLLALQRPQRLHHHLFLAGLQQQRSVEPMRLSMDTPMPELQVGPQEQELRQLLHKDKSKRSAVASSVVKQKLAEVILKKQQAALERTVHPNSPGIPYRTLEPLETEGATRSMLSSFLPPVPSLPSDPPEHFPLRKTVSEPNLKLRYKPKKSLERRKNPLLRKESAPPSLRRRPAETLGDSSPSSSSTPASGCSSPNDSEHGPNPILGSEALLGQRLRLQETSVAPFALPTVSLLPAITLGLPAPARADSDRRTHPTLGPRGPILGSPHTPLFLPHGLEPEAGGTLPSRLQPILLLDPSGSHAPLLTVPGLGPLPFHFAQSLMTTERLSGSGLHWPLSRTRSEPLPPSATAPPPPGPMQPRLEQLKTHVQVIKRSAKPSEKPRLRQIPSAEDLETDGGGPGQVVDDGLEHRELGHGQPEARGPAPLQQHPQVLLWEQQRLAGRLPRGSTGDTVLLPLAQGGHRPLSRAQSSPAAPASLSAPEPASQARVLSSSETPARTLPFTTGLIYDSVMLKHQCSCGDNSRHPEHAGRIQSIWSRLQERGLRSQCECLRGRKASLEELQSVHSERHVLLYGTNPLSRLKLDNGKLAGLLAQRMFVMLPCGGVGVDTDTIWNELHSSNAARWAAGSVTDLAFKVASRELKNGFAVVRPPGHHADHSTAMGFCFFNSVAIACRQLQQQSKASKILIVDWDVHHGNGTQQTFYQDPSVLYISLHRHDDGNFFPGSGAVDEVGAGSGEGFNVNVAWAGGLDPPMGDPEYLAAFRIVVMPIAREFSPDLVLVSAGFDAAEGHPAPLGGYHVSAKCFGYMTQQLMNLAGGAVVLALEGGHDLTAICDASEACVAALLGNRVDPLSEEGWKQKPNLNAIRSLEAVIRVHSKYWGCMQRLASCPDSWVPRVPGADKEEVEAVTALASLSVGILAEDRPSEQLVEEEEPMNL

Jurkat [1] = experiment: Effect on HDAC6 protein level in human Jurkat T cells at 0.1 to 2 uM incubated for 12 hrs by Western blot analysis; format: functional, cell-based; details: dose 0.1-2 µM
[2] = molecular target: T2, Histone deacetylase 8 (Homo sapiens) (UniProt Q9BY41); experiment: Inhibition of HDAC8 in human Jurkat T cells assessed as increase in acetylated SMC3 level incubated for 12 hrs by Western blot analysis; format: cell-based
T2 sequence (whole entry): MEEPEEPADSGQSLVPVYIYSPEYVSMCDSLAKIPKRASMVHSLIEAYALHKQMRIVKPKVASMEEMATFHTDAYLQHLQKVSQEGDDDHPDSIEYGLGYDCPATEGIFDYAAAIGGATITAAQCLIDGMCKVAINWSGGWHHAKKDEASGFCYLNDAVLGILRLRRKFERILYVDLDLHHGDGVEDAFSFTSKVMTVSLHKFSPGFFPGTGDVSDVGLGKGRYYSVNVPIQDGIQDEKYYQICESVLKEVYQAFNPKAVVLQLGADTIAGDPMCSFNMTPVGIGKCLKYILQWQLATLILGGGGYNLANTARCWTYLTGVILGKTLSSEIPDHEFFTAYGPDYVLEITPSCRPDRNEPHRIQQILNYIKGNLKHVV

[3] = molecular target: T3, Histone deacetylase 8 (Mus musculus) (UniProt Q8VH37); experiment: Inhibition of HDAC8 in mouse B16-F10 cells assessed as increase in acetylated SMC3 level incubated for 12 hrs by Western blot analysis; format: cell-based
T3 sequence (whole entry): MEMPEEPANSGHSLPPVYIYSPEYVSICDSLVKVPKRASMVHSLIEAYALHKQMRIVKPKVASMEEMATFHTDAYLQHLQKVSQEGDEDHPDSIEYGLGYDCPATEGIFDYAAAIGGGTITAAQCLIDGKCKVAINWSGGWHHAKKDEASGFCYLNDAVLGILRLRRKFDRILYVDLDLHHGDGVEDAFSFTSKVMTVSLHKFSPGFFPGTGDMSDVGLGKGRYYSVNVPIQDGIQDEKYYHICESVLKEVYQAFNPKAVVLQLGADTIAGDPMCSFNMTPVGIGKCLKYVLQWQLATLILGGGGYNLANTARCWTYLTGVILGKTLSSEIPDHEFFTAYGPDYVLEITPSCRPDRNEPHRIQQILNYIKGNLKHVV

Jurkat [4] = experiment: Effect on acetylated histone H3 protein level in human Jurkat T cells at 0.1 to 2 uM incubated for 12 hrs by Western blot analysis; format: functional, cell-based; details: dose 0.1-2 µM
B16-F10 [5] = experiment: Effect on acetylated histone H3 protein level in mouse B16-F10 cells at 0.1 to 2 uM incubated for 12 hrs by Western blot analysis; format: functional, cell-based; details: dose 0.1-2 µM
B16-F10 [6] = experiment: Effect on STAT3 expression level in mouse B16-F10 cells at 0.1 to 2 uM incubated for 24 hrs by Western blot analysis; format: functional, cell-based; details: dose 0.1-2 µM
[7] = AUC (0 to t) in male Sprague-Dawley rat at 2 mg/kg, iv measured after 48 hrs by triple quadrupole mass spectrometric analysis; format: ADME, organism-based; details: in vivo
[8] = Apparent volume of distribution during terminal phase in male Sprague-Dawley rat at 2 mg/kg, iv measured after 48 hrs by triple quadrupole mass spectrometric analysis; format: ADME, organism-based; details: in vivo
[9] = MRT (0 to infinity) in male Sprague-Dawley rat at 10 mg/kg, po measured after 48 hrs by triple quadrupole mass spectrometric analysis; format: ADME, organism-based; details: in vivo
[10] = Apparent clearance during terminal phase in male Sprague-Dawley rat at 10 mg/kg, po measured after 48 hrs by triple quadrupole mass spectrometric analysis; format: ADME, organism-based; details: in vivo
[11] = Toxicity in C57BL/6 mouse model implanted with mouse B16-F10 cells assessed as body weight loss at 20 mg/kg/day, ip administered for 14 days; format: organism-based; details: in vivo, 336 h, time 14 day
B16-F10 [12] = experiment: Antitumor activity against mouse B16-F10 cells implanted in C57BL/6 mouse model assessed as reduction in tumor weight at 20 mg/kg/day, ip administered for 14 days; format: functional, organism-based; details: time 14.0 day
[13] = Toxicity in C57 mouse assessed as myelosuppression by measuring MCHC level at 20 mg/kg/day, IG administered for 14 days by heat map analysis; format: organism-based; details: in vivo, po, 336 h, time 14 day
[14] = Toxicity in C57 mouse assessed as myelosuppression by measuring neutrophil level at 20 mg/kg/day, IG administered for 14 days by heat map analysis; format: organism-based; details: in vivo, po, 336 h, time 14 day
[15] = Toxicity in C57 mouse assessed as myelosuppression by measuring lymphocytes level at 20 mg/kg/day, IG administered for 14 days by heat map analysis; format: organism-based; details: in vivo, po, 336 h, time 14 day
[16] = Toxicity in C57 mouse assessed as change in ALB level at 20 mg/kg/day, IG administered for 14 days by heat map analysis; format: organism-based; details: in vivo, po, 336 h, time 14 day
[17] = Toxicity in C57 mouse assessed as change in TBIL level at 20 mg/kg/day, IG administered for 14 days by heat map analysis; format: organism-based; details: in vivo, po, 336 h, time 14 day

IC50 (Histone deacetylase 7): > 100 µM | inhibition [2]: inactive | inhibition [3]: inactive | AUC(0-t) at 48 h [7]: 1140 ng·h/mL | Vz/F [8]: 8.99 L/kg | MRT inf [9]: 19.3 h | CLz/F [10]: 25 mL/min/kg
Structure (SMILES): COc1nc(-c2cccc(-c3ccccc3)c2C)ccc1CNCCCCCCC(=O)NO
Activity (Jurkat [1]): inactive | Activity (Jurkat [4]): Active; Negligible Effect Observed | Activity (B16-F10 [5]): Active; Negligible Effect Observed | Activity (B16-F10 [6]): inactive | Activity [11]: Non-toxic | Activity (B16-F10 [12]): Active | Activity [13]: Non-toxic | Activity [14]: Non-toxic | Activity [15]: Non-toxic | Activity [16]: Non-toxic | Activity [17]: Non-toxic
